Assay results: patent publication US20240181020A1, “TREATMENT OF HYPOPARATHYROIDISM” (Entera Bio Ltd., priority 2015, published 2024)

What was measured:
[1] = Phase I clinical study: plasma PTH(1-34) after oral teriparatide tablets vs subcutaneous injection; type: in vivo, human; conditions: healthy volunteers, FIG. 1
Method: A Phase I clinical study of exemplary oral formulations comprising teriparatide (parathyroid hormone (1-34)) was conducted at the Hadassah Clinical Research Center. 42 healthy volunteers were included throughout the study.
The formulation was composed of teriparatide (200, 400, 680, 1400 or 1800 μg), SNAC (sodium 8-N-(2-hydroxybenzoyl) aminocaprylate), soybean trypsin inhibitor and magnesium stearate.
Tablets were administered in the morning after an 8-hour overnight fast and immediately followed by 150 ml of water. At each visit a standard meal was provided 3 hours after drug administration.
To determine parathyroid hormone(1-34) concentrations, blood samples (4 ml each) were drawn via an indwelling catheter from the forearm vein at predetermined time points. The cannula was flushed with 1.5 ml normal saline after each sampling. In addition, to avoid sample dilution, 1 ml of blood was drawn and discarded before the next sample. The blood samples were taken at following times: baseline (predose), 15 minutes, 30 minutes, 45 minutes, 60 minutes, 75 minutes, 90 minutes, 105 minutes, 2 hours, 3 hours, 4 hours and 5 hours post-administration. Each blood sample was collected into a single tube containing EDTA (ethylenediaminetetraacetic acid) and placed on ice. […] PTH levels were measured using an IDS-iSYS automated assay for the measurement of intact PTH in human plasma or serum. […]

[2] = Open label comparative pharmacokinetic study: oral teriparatide tablet with water or sodium bicarbonate solution; type: in vivo, human; conditions: 0.75 mg oral tablet with 150 ml of 3 mg/ml sodium bicarbonate solution vs 150 ml water; ten healthy volunteers; FIG. 25
Method: An open label comparative pharmacokinetic study was performed on ten healthy volunteers. On different visits, each volunteer received the same oral tablet containing 0.75 mg of teriparatide, a recombinant form of parathyroid hormone (1-34) (PTH(1-34)). In the first visit, the tablet was administered with 150 ml water, whereas in the second visit the tablet was administered with 150 ml of 3 mg/ml sodium bicarbonate aqueous solution.
The formulation was composed of teriparatide (0.75 mg), SNAC (sodium 8-N-(2-hydroxybenzoyl) aminocaprylate), soybean trypsin inhibitor (SBTI) and a small amount of magnesium stearate.
Tablets were administered in the morning after an 8-hour overnight fast. At each visit a standard meal was provided 3 hours after drug administration. […] There was a two week period between the two visits.
To determine PTH(1-34) concentrations, blood samples were drawn and PTH(1-34) levels were measured using an IDS-iSYS automated assay, using procedures described in Example 1 hereinabove. Relative absorption was determined based on the AUC (area under curve) parameter.

[3] = tested on: plasma levels of cAMP, a known marker of PTH activity; experiment: Phase I clinical study: plasma cAMP as marker of PTH activity; type: in vivo, human; conditions: oral 680 μg and subcutaneous 20 μg teriparatide; FIG. 3
Method: In addition, plasma levels of cAMP, a known marker of PTH activity, were determined in order to confirm biological activity of administered PTH. cAMP plasma levels were measured following oral administration of 680 μg teriparatide or subcutaneous injection of 20 μg teriparatide, as described hereinabove.

[4] = tested on: patients with established primary hypoparathyroidism (PHP); experiment: Phase IIa multi-center clinical study of oral teriparatide, 4 times per day for 16 weeks; type: in vivo, human
Method: A Phase IIa multi-center clinical study of an exemplary oral formulation comprising teriparatide was conducted on 19 patients with established primary hypoparathyroidism (PHP) (for more than one year). PHP was postsurgical in 13 patients, autoimmune in 5 patients and hereditary in 1 patient.
The average age of the patients was 44.5 years (range 20.3 to 71 years). At enrollment, the patients were treated with an average of 3.64 grams calcium supplement per day (range 1-10.8 grams per day) and 1.1 μg alphacalcidol supplement per day (range 0-2 μg per day). Patients with low hemoglobin, estimated glomerular filtration rate (eGFR) of less than 40 ml per minute per 1.73 m^2, liver enzymes at least 3 times the upper limit, drug or alcohol abuse, kidney/urinary tract stones, 25-hydroxycholecalciferol (25(OH)D) serum levels of less than 20 ng/ml or BMI outside the range of […] were excluded from the study.
The formulation was composed of teriparatide (750 μg per dose), SNAC, soybean trypsin inhibitor and magnesium stearate.
Teriparatide was administered 4 times per day, prior to meals, for 16 weeks. Following the first two doses, plasma samples were taken for pharmacokinetic analysis by determining teriparatide serum levels according to procedures described in Example 1. On the first day of treatment during follow up visits at the end of weeks 1, 2, 3, 4, 6, 8, 10, 12 and 16, serum calcium, phosphorus, albumin, and creatinine were evaluated, and dose adjustment of supplemental calcium medications was performed based on albumin adjusted calcium (ACa) levels. 24 hour urine samples were collected at the end of weeks 8 and 16. Quality of Life was (QoL) was monitored using a standard questionnaire.

[5] = Phase IIa study: teriparatide serum levels after oral dosing before and after a meal; type: in vivo, human; conditions: second administration on day 1 vs empty stomach
Method: To determine parathyroid hormone(1-34) concentrations, blood samples (4 ml each) were drawn via an indwelling catheter from the forearm vein at predetermined time points. The cannula was flushed with 1.5 ml normal saline after each sampling. In addition, to avoid sample dilution, 1 ml of blood was drawn and discarded before the next sample. The blood samples were taken at following times: baseline (predose), 15 minutes, 30 minutes, 45 minutes, 60 minutes, 75 minutes, 90 minutes, 105 minutes, 2 hours, 3 hours, 4 hours and 5 hours post-administration. Each blood sample was collected into a single tube containing EDTA (ethylenediaminetetraacetic acid) and placed on ice. Within 15 minutes of blood collection, samples were centrifuged for 10 minutes at 4° C. […] PTH levels were measured using an IDS-iSYS automated assay for the measurement of intact PTH in human plasma or serum.
Teriparatide was administered 4 times per day, prior to meals, for 16 weeks. […] On the first day of treatment during follow up visits at the end of weeks 1, 2, 3, 4, 6, 8, 10, 12 and 16, serum calcium, phosphorus, albumin, and creatinine were evaluated, and dose adjustment of supplemental calcium medications was performed based on albumin adjusted calcium (ACa) levels. […] Quality of Life was (QoL) was monitored using a standard questionnaire.

hypoparathyroidism = conditions: cited from earlier work
[6] = Release of SNAC from tablets with or without sodium bicarbonate in simulated gastric buffer; type: physicochemical; conditions: tablet with 100 mg sodium bicarbonate vs without; simulated gastric buffer pH 2.0, 37° C., 50 rotations per minute; FIG. 24
Method: The tablets were in a form of a homogeneous mixture. Each tablet formulation was subjected to a dissolution test in 100 ml of simulated gastric buffer (without pepsin), pH 2.0, at 37° C., according to USP 23 Apparatus 2 (paddle) with 50 rotations per minute. The amount of released SNAC in each sample was determined chromatographically, using an HPLC apparatus with Cosmosil™ 5 C18-MS-II (4.6 ID×250 mm) column. Mobile phase consisted of 50% acetonitrile and 50% phosphoric acid solution (0.1%). Flow rate was 1 ml/minute and injection volume was 25 μl. Amount of released SNAC was calculated as a percentage of the amount of SNAC in the formulation.

[7] = patient, 16-week treatment, FIG. 8

## CC[C@H](C)[C@H](NC(=O)[C@H](CCC(=O)O)NC(=O)[C@H](CO)NC(=O)[C@@H](NC(=O)[C@@H](N)CO)C(C)C)C(=O)N[C@@H](CCC(N)=O)C(=O)N[C@@H](CC(C)C)C(=O)N[C@@H](CCSC)C(=O)N[C@@H](Cc1cnc[nH]1)C(=O)N[C@@H](CC(N)=O)C(=O)N[C@@H](CC(C)C)C(=O)NCC(=O)N[C@@H](CCCCN)C(=O)N[C@@H](Cc1cnc[nH]1)C(=O)N[C@@H](CC(C)C)C(=O)N[C@@H](CC(N)=O)C(=O)N[C@@H](CO)C(=O)N[C@@H](CCSC)C(=O)N[C@@H](CCC(=O)O)C(=O)N[C@@H](CCCN=C(N)N)C(=O)N[C@H](C(=O)N[C@@H](CCC(=O)O)C(=O)N[C@@H](Cc1c[nH]c2ccccc12)C(=O)N[C@@H](CC(C)C)C(=O)N[C@@H](CCCN=C(N)N)C(=O)N[C@@H](CCCCN)C(=O)N[C@@H](CCCCN)C(=O)N[C@@H](CC(C)C)C(=O)N[C@@H](CCC(N)=O)C(=O)N[C@@H](CC(=O)O)C(=O)N[C@H](C(=O)N[C@@H](Cc1cnc[nH]1)C(=O)N[C@@H](CC(N)=O)C(=O)N[C@@H](Cc1ccccc1)C(=O)O)C(C)C)C(C)C [teriparatide]
[1]; oral doses 200, 400, 680, 1400 or 1800 μg
  Cmax of PTH(1-34) following oral administration, relation to dose: proportional to the dose
[1]; oral tablets with SNAC, soybean trypsin inhibitor, magnesium stearate, 8-hour overnight fast
  oral dose of teriparatide providing a Cmax equivalent to that of subcutaneous administration of 20 μg teriparatide: roughly 750 μg
[2]
  increase in absorption of PTH(1-34) (AUC): about 35%
[3]
  plasma cAMP levels: increased plasma cAMP levels to a similar degree
[4]; 3 subjects with sustained elevations
  urinary calcium, margin below the upper limit of normal: more than 30%
[4]; 13 subjects with sustained decrease
  average decrease in urinary calcium: 34%
[4]; 13 subjects with sustained decrease, from 209 mg per 24 hours
  urinary calcium: 136 mg per 24 hours
[4]; 60 minutes after oral dose, throughout 16 weeks
  serum phosphorus after each dose, range: 2.9 to 5.2 mg/dL
[4]; 60 minutes after oral dose, throughout 16 weeks, p<0.02, FIG. 5
  serum phosphorus, average level after each dose: 4.3 mg/dL
[4]; FIG. 5
  pre-dose serum phosphorus levels: reduced following 2 weeks of treatment
[4]; after 16 weeks, relative to baseline
  reduction of calcium intake: 1278 ± 880 mg
[4]; after 16 weeks, relative to baseline, FIG. 4
  average reduction of calcium intake: 37%
[4]; after 16 weeks, baseline 3692 mg
  calcium intake: 2414 mg
[4]; at the end of 16 weeks, subjects who completed the study
  subjects with urinary calcium above the normal range: one of the 17
[4]; during treatment, baseline range 7.2-8.99
  albumin adjusted calcium, range: 6.97-9.14 md/dL
[4]; maintained during treatment while calcium intake was decreased, baseline 7.92
  albumin adjusted calcium, mean level: 8.15 mg/dL
[4]; oral 750 μg per dose, 4 times per day, 16 weeks, 17 subjects completed
  related adverse events: no related adverse events
[4]; oral 750 μg per dose, 4 times per day, 16 weeks, 17 subjects completed, over 8000 doses
  safety and tolerability: safe and well tolerated
[4]; [7]
  reduction of calcium intake, sample case: over 50%
  reduction of urinary calcium levels, sample case: over 50%
[4]; patient, end of week 4, baseline 32.2 ng/ml, constant alphacalcidol
  total serum levels of 25-hydroxycholecalciferol (25(OH)D), sample case: 36.7 ng/mL
[4]; patient, FIG. 9
  ACa levels, sample case: gradually increased
  serum phosphate levels, sample case: gradually decreased
[4]; patient, increased from 70
  Quality of Life health score, sample case: 80
[5]; patient, FIG. 10
  PTH(1-34) serum levels, after a meal relative to prior to a meal, sample case: about half
[5]; FIGS. 6 and 7
  PTH(1-34) serum levels, after a meal relative to prior to a meal: about half
hypoparathyroidism; pump vs twice-daily subcutaneous injection, from 37 μg per day to 13 μg per day
  reduction in the PTH dose needed to maintain normal serum calcium levels: 65%
hypoparathyroidism; subcutaneous infusion by insulin pump vs twice-daily subcutaneous injection
  reduction in urine calcium: more than 50%

## O=C(O)CCCCCCCNC(=O)c1ccccc1O [SNAC, sodium 8-N-(2-hydroxybenzoyl)aminocaprylate]
[6]
  dissolution of SNAC from tablets, effect of sodium bicarbonate: considerably enhanced the dissolution
